Reference: patent US20200061026A1, “METHODS AND COMPOSITIONS FOR PREVENTING VECTOR-BORNE DISEASE TRANSMISSION” (The Scripps Research Institute, priority 2016, published 2020)
Like-named read-outs stand apart in the source and are kept apart here.

What was measured:
Anopheles = Anopheles membrane feeding assay, EC90 at day 7; type: in vivo; conditions: 168 h
From the text: Isoxazoline compounds fluralaner or afoxolaner were reconstituted in 50% human serum and 50% red blood cells and administered to adult Anopheles stephensi mosquitos via standard membrane feeding. […] FIG. 2A represents a plot of viable Anopheles stephensi versus fluralaner concentration at each day of assessment. FIG. 2B represents a plot of viable Anopheles stephensi versus afoxolaner concentration at each day of assessment. […] The IC50 values of each compound for Anopheles death were determined by logistic regression using a least squares method to find the best fit and are shown in Table 1. IC50 values were calculated by applying a four-parameter logistic regression model using a least-squares method to find the best fit using the Graphpad Prism 5.0 software package.

CYP 3A4 = target: T1, CYP 3A4 (Homo sapiens, UniProt P08684); assay: Reversible CYP inhibition in human liver microsomes, CYP 3A4; type: in vitro ADME
T1 construct: individual CYPs in a pool of human liver microsomes; from tissue; host or cells: pooled human liver microsomes
Protocol: (§1) Reversible inhibition of cytochrome P450s (CYPs) in human liver microsomes was tested using prototypical, isoform-selective activity assays for individual CYPs in a pool of human liver microsomes (i.e., testosterone for CYP 3A4, phenacetin for CYP 1A2, bufuralol for CYP 2D6, S-mephenytoin for CYP 2C19, and diclofenac for CYP 2C9). The assay provides 8-point IC50 determinations in the range of 0.010 to 50 μM drug concentrations for major isoforms of CYP450.

CYP 1A2 = target: T2, CYP 1A2 (Homo sapiens, UniProt P05177); assay: Reversible CYP inhibition in human liver microsomes, CYP 1A2; type: in vitro ADME
T2 construct: individual CYPs in a pool of human liver microsomes; from tissue; host or cells: pooled human liver microsomes
T2 sequence (P05177 1-516): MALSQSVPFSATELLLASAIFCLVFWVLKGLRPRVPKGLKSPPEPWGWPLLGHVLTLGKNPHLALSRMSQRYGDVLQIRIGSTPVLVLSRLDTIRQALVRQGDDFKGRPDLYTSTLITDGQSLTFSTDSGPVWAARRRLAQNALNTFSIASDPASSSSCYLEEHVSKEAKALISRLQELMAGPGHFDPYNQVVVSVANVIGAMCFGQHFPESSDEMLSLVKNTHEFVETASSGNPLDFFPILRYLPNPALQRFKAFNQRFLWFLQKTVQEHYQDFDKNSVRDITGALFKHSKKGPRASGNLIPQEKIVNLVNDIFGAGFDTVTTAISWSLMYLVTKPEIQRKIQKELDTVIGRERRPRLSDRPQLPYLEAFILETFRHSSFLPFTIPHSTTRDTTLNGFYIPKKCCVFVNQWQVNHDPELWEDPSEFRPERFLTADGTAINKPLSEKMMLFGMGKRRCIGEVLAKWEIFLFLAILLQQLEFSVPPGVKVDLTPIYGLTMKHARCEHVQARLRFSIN
Protocol: as §1

[1] = Hepatocyte stability assay, cynomolgus monkey; type: in vitro ADME; conditions: hepatocytes
Protocol: Example 7. In Vitro Metabolic Stability of Isoxazoline Compounds in cd-1 Mouse, sd Rat, Beagle Dog, Cynomolgus Monkey and Human Cryopreserved Hepatocytes
Isoxazoline compounds (at 1 μM) were incubated with cryopreserved hepatocytes (0.5×10^6 cells per mL) in duplicates (n=2) at 37° C. using 96-well plate format.
Time points were 0, 15, 30, 60 and 90 minutes in separate plates and medium control samples without cells at 0 and 90 minutes were also incubated. At each time point the reaction was stopped by adding organic solution containing internal standard (IS).
Positive controls 7-ethoxycoumarin and 7-hydroxycoumarin were included in parallel.
The samples were analyzed by LC-MS/MS. Disappearance of the test compound was assessed based on peak area ratios of analyte/IS (no standard curve).
Intrinsic clearance and t½ values were then calculated.

[2] = Plasma protein binding (equilibrium dialysis), rat; type: in vitro ADME; conditions: 2 μM
Protocol: (§2) Frozen plasma (EDTA-K2 as anticoagulant) pooled from multiple individuals of various species was used as a test matrix. The plasma was purchased from commercial vendors or prepared in house from animals. Warfarin was used as a positive control.
(§3) Isoxazoline compounds were spiked into the blank matrix at the final concentration of 2 μM.
(§4) A 150 μL aliquot of matrix sample was added to one side of the chamber in a 96-well equilibrium dialyzer plate (HTD dialysis) and an equal volume of dialysis buffer was added to the other side of the chamber. An aliquot of matrix sample was harvested before the incubation and used as T0 samples for recovery calculation. Triplicate incubations were performed.
(§5) The dialyzer plate was placed in a humidified incubator and rotated slowly for 4 hours at 37° C. After incubation, samples were taken from the matrix side as well as the buffer side. The plasma sample was matched with equal volume of blank buffer; and buffer samples were matched with equal volume of blank plasma. The matrix-matched samples were quenched with a stop solution containing internal standard.
(§6) The samples were analyzed by LC-MS/MS.
(§7) Then, % bound fraction at 4 hours (% bound=1−% unbound) and % recovery in incubates at 4 hours were calculated.
(§8) The stability of compounds in mouse (ms), rat (r), dog (d), cynomolgus monkey (cy), and human (hu) plasma is shown in Table 10 by the percentages of compounds remaining at two hours.

[3] = Plasma protein binding (equilibrium dialysis), dog; type: in vitro ADME; conditions: 2 μM
Protocol: as §2, §3, §4, §5, §6, §7, §8

[4] = Plasma protein binding (equilibrium dialysis), human; type: in vitro ADME; conditions: 2 μM
Protocol: as §2, §3, §4, §5, §6, §7, §8

[5] = Bidirectional permeability in Caco-2 cells; type: in vitro ADME, human; conditions: for Papp B→A at 2 h, 2 μM / Papp A→B at 2 h, 2 μM: human, Caco-2, pH 7.4
Protocol: The suitability of the compound for oral dosing was evaluated via a Caco-2 permeability assay to predict human intestinal permeability and to investigate drug efflux. Afoxolaner racemate was evaluated for P-glycoprotein (PGP) inhibition in a MDCK permeability assay.
Caco-2 Cells (obtained from ATCC) were seeded onto PET membranes of 96-well Insert Plates for 21-28 days for confluent cell monolayer formation. The integrity of the monolayer was verified by performing Lucifer yellow rejection assay. The quality of the monolayer was also verified by measuring the unidirectional (A→B) permeability of fenoterol/nadolol (low permeability marker), propranolol/metoprolol (high permeability marker) and Bi-directional permeability of Digoxin (a P-glycoprotein substrate marker) in duplicate wells.
Standard assay conditions are as follows: each test compound was tested at 2 μM (DMSO≤1%) with two replicates; bi-directional transport was evaluated (A→B and B→A); incubation was for 2 hours with a single time point; the transport buffer contained HBSS with 10 mM HEPES at pH7.40±0.05; and incubation occurred at 37±1° C., 5% CO2 and relatively saturated humidity. The dosing solution was spiked and mixed with transport buffer and Stop Solution (containing an appropriate internal standard (IS)) to provide the T0 sample. At the end of incubation, sample solutions from both donor and receiver wells were immediately mixed with Stop Solution. All samples, including T0 samples, donor samples, and receiver samples, were analyzed using LC/MS/MS. Concentrations of test compound are expressed as peak area ratio of analytes versus IS without a standard curve.

[6] = Lipophilicity, ALogD at pH 7.4; type: physicochemical
[7] = cynomolgus monkey (cy), 1 μM, read-out: Hepatocyte stability (t½)
[8] = B→A, 2 μM, 2 hours, read-out: Caco2 B-A

T1 sequence (P08684 whole entry): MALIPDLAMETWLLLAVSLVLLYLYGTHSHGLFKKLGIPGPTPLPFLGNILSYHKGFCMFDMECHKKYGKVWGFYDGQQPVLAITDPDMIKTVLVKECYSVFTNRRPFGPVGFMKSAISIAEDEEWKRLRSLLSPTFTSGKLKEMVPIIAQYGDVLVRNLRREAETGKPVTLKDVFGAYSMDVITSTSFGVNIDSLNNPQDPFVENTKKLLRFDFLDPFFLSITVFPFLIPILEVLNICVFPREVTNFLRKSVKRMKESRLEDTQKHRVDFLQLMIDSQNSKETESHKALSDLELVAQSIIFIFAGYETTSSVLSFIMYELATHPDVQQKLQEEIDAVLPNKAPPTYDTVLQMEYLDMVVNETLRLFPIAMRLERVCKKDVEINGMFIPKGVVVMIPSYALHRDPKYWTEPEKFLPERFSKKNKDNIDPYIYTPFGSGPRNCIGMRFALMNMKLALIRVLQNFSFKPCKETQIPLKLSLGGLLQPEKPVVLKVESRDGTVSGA

`O=C(CNC(=O)c1ccc(C2=NO[C@](c3cc(Cl)cc(C(F)(F)F)c3)(C(F)(F)F)C2)c2ccccc12)NCC(F)(F)F` (racemic) [Afoxolaner, afoxolaner] showed an EC90 (Anopheles) of 0.0081 µM, an IC50 (CYP 3A4) of over 50 µM and an IC50 (CYP 1A2) of over 50 µM. For the same compound, the half-life at 1 μM [1, 7] was over 217 min, the “Plasma protein % binding” value ([2]; rat (r), 4 hours) was 97.3 (r), % and the “Plasma protein % binding” value ([3]; dog (d), 4 hours) was >99.9 (d, hu) %. The “Plasma protein % binding” value ([4]; human (hu), 4 hours) was >99.9 (d, hu) %, the “Caco2 A-B” value ([5]; A→B, 2 μM, 2 hours) was <0.0003/ 10^−6 cm/sec and the Papp B→A at 2 h, 2 μM [5, 8] was 0.24 ×10⁻⁶ cm/s. The “ALogD (pH 7.4)” value [6] was 6.1.

In the case of `O=C(CNC(=O)c1ccc(C2=NO[C@@](c3cc(Cl)cc(C(F)(F)F)c3)(C(F)(F)F)C2)c2ccccc12)NCC(F)(F)F` [(S)-afoxolaner], the EC90 (Anopheles) is reported as 0.008 µM, the IC50 (CYP 3A4) is reported as over 50 µM and the IC50 (CYP 1A2) is reported as over 50 µM. For the same compound, the half-life at 1 μM [1, 7] was 50 min, the “Plasma protein % binding” value ([2]; rat (r), 4 hours) was >99.9 (ms, r, hu), % and the “Plasma protein % binding” value ([3]; dog (d), 4 hours) was 99.5 (d) %. For the same compound, the “Plasma protein % binding” value ([4]; human (hu), 4 hours) was >99.9 (ms, r, hu), %, the Papp A→B at 2 h, 2 μM ([5]; A→B, 2 μM, 2 hours, read-out: Caco2 A-B) was under 0.2 ×10⁻⁶ cm/s and the Papp B→A at 2 h, 2 μM [5, 8] was 0.7 ×10⁻⁶ cm/s. For the same compound, the “ALogD (pH 7.4)” value [6] was 6.1.

With `O=C(CNC(=O)c1ccc(C2=NO[C@@](c3cc(Cl)cc(Cl)c3)(C(F)(F)F)C2)c2ccccc12)NCC(F)(F)F` [(S)-4-(5-(3,5-dichlorophenyl)-5-(trifluoromethyl)-4,5-dihydroisoxazol-3-yl)-N-(2-oxo-2-((2,2,2-trifluoroethyl)amino)ethyl)-1-naphthamide] the EC90 (Anopheles; day 7, read-out: EC90) was 0.008 µM, the IC50 (CYP 3A4) was over 50 µM and the IC50 (CYP 1A2; human liver microsomes, phenacetin, read-out: Cyp microsome IC50, 1A2) was over 50 µM. For the same compound, the half-life at 1 μM ([1]; cynomolgus monkey) was 42 min, the “Plasma protein % binding” value ([2]; rat, 4 h) was >99.9% (ms, r, d, hu) and the “Plasma protein % binding” value ([3]; dog, 4 h) was >99.9% (ms, r, d, hu). For the same compound, the “Plasma protein % binding” value ([4]; human, 4 h) was >99.9% (ms, r, d, hu), the Papp A→B at 2 h, 2 μM [5] was under 0.29 ×10⁻⁶ cm/s and the Papp B→A at 2 h, 2 μM [5] was 0.56 ×10⁻⁶ cm/s. The “ALogD (pH 7.4)” value [6] was 5.8.
